What was measured:
[1] = tested on: artificial genetic circuit pGESS-EGFP (I) (dmpR); assay: signals of artificial genetic circuit for various phenols, FACS fluorescence; assay type: cell-based, E. coli DH5α; details: 100 uM of each phenol derivative, 30° C. 18 hours
Text: Whether the artificial genetic circuit senses the following phenol derivatives and the sensitivities of the genetic circuit to the phenol derivatives were examined: o-nitrophenol, m-nitrophenol, p-nitrophenol, o-chlorophenol, m-chlorophenol, p-chlorophenol, salicylic acid, 2-aminophenol, 2-methoxyphenol, o-cresol, m-cresol, p-cresol, catechol, resorcinol, 2-fluorophenol, 2-iodophenol, 2,4-dimethylphenol, 2,5-dimethylphenol, 3,4-dimethylphenol, 2,3-dimethylphenol, 3,5-dimethylphenol, 2,4-dichlorophenol, 2,5-dichlorophenol, 2,3-dichlorophenol, 2,6-dichlorophenol, 3,4-dichlorophenol, 3,5-dichlorophenol, 2,4-dinitrophenol, 3-methylcatechol, 2-ethylphenol, 3-ethylphenol, and benzene. Specifically, a single colony of E. coli DH5α containing pGESS-EGFP (I) was inoculated into LB liquid medium containing 50 μg/ml of ampicillin and was cultured overnight at 37° C. The culture was inoculated into LB medium containing 50 μg/ml of ampicillin to a concentration of 1% (v/v) and was cultured at 37° C. for about 8 hours until the OD600 of the cells reached 3. Then, 100 uM of each of the phenol derivatives was added to the culture which was then cultured with shaking at 30° C. for 18 hours. 100 μl of each culture was extracted, and the distribution of fluorescence in individual cells was examined by FACS. Each of the samples was tested three times, and the measurements were averaged.

[2] = tested on: artificial genetic circuit pGESS-Cm (II); assay: response of chloramphenicol resistance reporter circuit to phenol derivatives, OD600; assay type: cell-based, E. coli EPI300; details: 100 μM of each phenol derivative, 30 μg/ml chloramphenicol, 37° C. 8 hours
Procedure: In the case of the artificial genetic circuit comprising chloramphenicol resistance gene as the reporter, whether the genetic circuit responds to the substrates was examined. […] The culture was inoculated into 50 μg/ml ampicillin-containing LB liquid medium to a concentration of 1% (v/v), and then 30 μg/ml of chloramphenicol and 100 μM of each of the phenol derivatives were added thereto and the cells were cultured with shaking at 37° C. for 8 hours. Then, the OD600 of the cells was measured, thereby examining whether the genetic circuit responded to the phenol derivatives. As a control group, cells containing 100 μM of phenol without containing chloramphenicol were used.

[3] = tested on: artificial genetic circuit pGESS-EGFP (I) (dmpR); assay type: cell-based, E. coli DH5α; details: 0.1-1000 μM tested, overnight at 30° C., LB medium
Procedure: The signals of the artificial genetic circuit for phenolic compounds were quantitatively analyzed. Specifically, a single colony of E. coli DH5α containing pGESS-EGFP (I) was inoculated into LB liquid medium containing 50 μg/ml of ampicillin and was cultured with shaking overnight at 37° C. The culture was inoculated into LB medium containing 50 μg/ml of ampicillin to a concentration of 1% (v/v), and 0.1-1000 μM of each of phenol, o-chlorophenol, m-chlorophenol, o-nitrophenol, catechol and resorcinol was added thereto and cultured with shaking overnight at 30° C. The cells were lysed, and the supernatant was analyzed by a fluorescence spectrometer (Varian, Australia), thereby measuring the fluorescence of GFP at 510 nm.

Row | Compound | response of the artificial genetic circuit (fluorescence, FACS) [1] | response of the artificial genetic circuit (chloramphenicol resistance, OD600) [2] | concentration from which fluorescence started to be sensed [3] [µM]
1 | Cc1ccc(C)c(O)c1 [2,5-dimethylphenol] | weakly responded | – | –
2 | O=[N+]([O-])c1cccc(O)c1 [m-nitrophenol] | weakly responded | strongly responded | –
3 | Oc1ccccc1Cl [o-chlorophenol] | strongly responded | strongly responded | ≤ 0.1
4 | Oc1ccc(Cl)cc1 [p-chlorophenol] | weakly responded | weakly responded to or did not respond | –
5 | Nc1ccccc1O [2-aminophenol] | strongly responded | – | –
6 | Oc1ccccc1F [2-fluorophenol] | strongly responded | strongly responded | –
7 | Cc1cccc(O)c1 [m-cresol] | strongly responded | strongly responded | –
8 | Cc1ccc(O)cc1 [p-cresol] | weakly responded | weakly responded to or did not respond | –
9 | Oc1cccc(O)c1 [resorcinol] | – | – | 100
10 | Oc1cccc(Cl)c1Cl [2,3-dichlorophenol] | weakly responded | – | –
11 | Oc1ccccc1O [catechol] | strongly responded | strongly responded | 10
12 | Cc1ccccc1O [o-cresol] | strongly responded | strongly responded | –
13 | Oc1cc(Cl)ccc1Cl [2,5-dichlorophenol] | weakly responded | – | –
14 | O=[N+]([O-])c1ccccc1O [o-nitrophenol] | strongly responded | strongly responded | 10
15 | Cc1cccc(O)c1C [2,3-dimethylphenol] | weakly responded | strongly responded | –
16 | O=[N+]([O-])c1ccc(O)cc1 [p-nitrophenol] | did not respond | weakly responded to or did not respond | –
17 | Oc1cccc(Cl)c1 [m-chlorophenol] | weakly responded | strongly responded | 1
18 | CCc1ccccc1O [2-ethylphenol] | strongly responded | strongly responded | –
19 | COc1ccccc1O [2-methoxyphenol] | strongly responded | strongly responded | –
20 | Oc1ccccc1I [2-iodophenol] | strongly responded | strongly responded | –
